Experimental data published in PubChem BioAssay AID1996.
≈ marks a conversion by molar mass, not a printed value.

details: buffer; pH 7.4; 200.0 µM

solubility kinetic [µg/mL] | Structure (SMILES)
5.7 (≈ 17.2 µM) | Cc1c(Cl)cccc1NC(=O)CC1Oc2ccccc2NC1=O (stereo not given)
5.1 (≈ 13.3 µM) | O=C(COC(=O)c1ccc(Br)o1)Nc1ccc2c(c1)OCCO2
34.3 (≈ 115 µM) | CCC1CCCCN1S(=O)(=O)c1ccc([N+](=O)[O-])cc1 (stereo not given)
> 41.3 | CCc1ccccc1NC(=O)NCCN1CCCCC1
0.6 (≈ 1.67 µM) | CCCC(=O)Nc1ccc2oc(-c3cncc(Br)c3)nc2c1
> 50.6 | O=C(CNC(=O)c1ccc(Br)o1)NCc1ccccc1
30.6 (≈ 123 µM) | COc1cc(CN2CCCCCC2)cc(OC)c1
3 (≈ 9.25 µM) | Cc1ccc(OC(C)C(=O)N2CC(=O)Nc3ccccc32)c(C)c1 (stereo not given)
> 47.9 | CCOC(=O)N1CCN(C(=O)c2ccccc2NC(C)=O)CC1
5.5 (≈ 21.3 µM) | Cn1c(Nc2cccc(Cl)c2)nc2ccccc21
30.2 (≈ 93.4 µM) | O=C(COC(=O)c1cccc(OC(F)F)c1)Nc1ncccn1
4.9 (≈ 15.9 µM) | CC(=O)c1ccc(NC(=O)NC2CCCc3ccccc32)cc1 (stereo not given)
1.1 (≈ 3.25 µM) | COc1cccc(NC(=O)Nc2nc(SC(C)(C)C)ns2)c1
0.6 (≈ 1.89 µM) | CCC(=O)Nc1cccc(NC(=O)c2ccc(C)cc2Cl)c1
42.2 (≈ 128 µM) | Cc1ccc(-c2noc(CCCC(=O)NCC3CCCO3)n2)cc1 (stereo not given)
> 43.7 | C/C(=N/NC(=O)CNC(=O)c1cccs1)c1ccco1
7.8 (≈ 21.8 µM) | O=C(CN1C(=O)S/C(=C\C=C\c2ccccc2)C1=O)N1CCOCC1
42.8 (≈ 140 µM) | C[C@@H](C(=O)Nc1nccs1)N1C(=O)C2CC=CCC2C1=O (stereo not given in full)
> 43.4 | COc1cc(OC)cc(C(=O)NCCCn2ccnc2)c1
> 54.4 | CC(C)[C@H](NC(=O)c1ccccc1)C(=O)OCC(=O)NCC1CCCO1 (stereo not given in full)
> 30.6 | Cc1cc2nc(C(C)(C)C)cc(N)n2n1
> 41.8 | COc1ccc(NC(=O)N2CCCCCC2)cc1OC
> 52.6 | CCCOC(=O)CC1C(=O)NCCN1Cc1cc(OC)cc(OC)c1 (stereo not given)
45.8 (≈ 120 µM) | CCS(=O)c1ccccc1C(=O)OCC(=O)Nc1ccc2ccccc2c1 (stereo not given)

solubility kinetic [µg/mL] | Structure (SMILES)
6.6 (≈ 16.6 µM) | COc1ccc(CCN2C(=NC(=O)C(C)C)SC3CS(=O)(=O)CC32)cc1 (stereo not given)
2.3 (≈ 8.77 µM) | Cn1c(/C=C/c2ccccc2)nc2ccccc2c1=O
< 0.6 | Cc1ccc2oc(=O)n(CCOc3ccccc3C)c2c1
> 42.2 | CCC(Cc1ccccc1)NC(=O)CCc1ccccc1 (stereo not given)
0.7 (≈ 2.35 µM) | COC(=O)c1c(NC(=O)C2=COCCO2)sc(C)c1C
> 42.5 | O=C(NCCc1ccccc1)C1COc2ccccc2O1 (stereo not given)
14.1 (≈ 43.1 µM) | CCOc1cc(C2NC(=O)c3ccccc3O2)ccc1OC(C)C (stereo not given)
6.9 (≈ 23.1 µM) | O=C1C(Cl)=C(NCc2cccnc2)C(=O)c2ccccc21
6.7 (≈ 17.3 µM) | O=C(/C=C/Nc1ccc(S(=O)(=O)Nc2ncccn2)cc1)c1cccs1
> 39.1 | Nc1ccc(S(=O)(=O)N2CCCC2)cc1Cl
2 (≈ 6.75 µM) | CC1CCc2sc(C(=O)OCC(=O)NC(N)=O)cc2C1 (stereo not given)
> 47.9 | CCCn1nc(Oc2nc(N(C)C)nc(N(C)C)n2)ccc1=O
52.4 (≈ 147 µM) | Cc1cc(C)cc(N2C(=O)CC(Sc3ccccc3C(=O)O)C2=O)c1 (stereo not given)
1.1 (≈ 3.5 µM) | CC(NS(=O)(=O)c1ccccc1Cl)C1CC2CCC1C2 (stereo not given)
< 0.4 | Cc1cc2cccc(C)c2nc1SCC(=O)NC1CCCCC1
1.3 (≈ 4.24 µM) | CC(=O)C(/C=N/c1ncc(C(F)(F)F)cc1Cl)=C(\C)O
> 52.1 | O=C(O)c1ccc(S(=O)(=O)N2CCN(c3ccccn3)CC2)cc1
13.5 (≈ 32.7 µM) | COc1cc(C(=O)Nc2cccc(NC(=O)c3cccs3)c2)cc(OC)c1OC
> 49.4 | O=C(CN1C(=O)NC2(CCCCCC2)C1=O)NCc1ccccc1
> 36.8 | N#C/C(=C\c1ccc(N2CCCCC2)o1)C(N)=O
0.8 (≈ 2.24 µM) | COC(=O)c1sc(NC(=O)c2c(-c3ccccc3)noc2C)nc1C
> 48.6 | O=C(O)CC1(CC(=O)NCc2ccc(Cl)cc2)CCCCC1
11.3 (≈ 39.6 µM) | O=C(NC1=NCCS1)c1cccc(Br)c1
> 48.6 | O=C(Nc1nnc(Cc2ccc(Cl)cc2)s1)C1CCCO1 (stereo not given)

solubility kinetic [µg/mL] | Structure (SMILES)
27 (≈ 104 µM) | O=C(/C=C/c1ccccc1Cl)Nc1cccnc1
> 39.1 | Cc1ccc(C)c(NC(=O)CCN2CCCCC2)c1
> 40.1 | Cc1ccsc1C(=O)OCC(=O)NC1CCCC1
39.4 (≈ 127 µM) | Cc1ccnc(NC(=O)C(C)N2C(=O)c3ccccc3C2=O)c1 (stereo not given)
> 52.6 | COc1cc2nc(Nc3ccc(F)cc3)nc(N)c2cc1OC.Cl
> 29.8 | Nc1nc(Cl)cc(N2CCCC2)n1
29.3 (≈ 110 µM) | CCOc1ccc(Cl)cc1/C=C1/C(=O)ON=C1C
> 41.6 | O=C(c1cccc2c1-c1ccccc1C2)N1CCCCC1
1.2 (≈ 4.74 µM) | N#Cc1ccc(-c2csc(-c3ccno3)n2)cc1
5.7 (≈ 15.2 µM) | O=C(Nc1ccc(Cl)cc1)N1CCN(Cc2ccc3c(c2)OCO3)CC1
2.2 (≈ 7.77 µM) | CC(=O)c1cccc(NC(=O)c2ccc3c(c2)OCO3)c1
> 50.8 | C=CCNC(=O)c1ccc2c(c1)N(CC)C(=O)c1ccccc1S2
> 37.2 | COc1ccc(NC(=O)C2CCCNC2=O)cc1 (stereo not given)
> 39.2 | CC1(C)CC(=O)C2=C(C1)Nc1ccccc1[S@]2=O
12 (≈ 29.6 µM) | Cc1ccc(/C([O-])=C(/C(=S)NCc2ccccc2)[n+]2ccccc2)cc1[N+](=O)[O-]
> 71.6 | O=C(COC(=O)c1cc(S(=O)(=O)N2CCOCC2)c(Cl)cc1Cl)NCc1ccco1
> 62.8 | COCCn1c(SCC(=O)NCCCN2CCCC2=O)nc2ccccc2c1=O
15.5 (≈ 41.7 µM) | COc1cc(/C=C/C(=O)OCC(=O)Nc2ccc3c(c2)OCO3)ccc1O
> 31.8 | OCc1ccccc1N=Cc1cccnc1
> 48.4 | CCN(CC)CCN1CNC(=S)N(c2ccccc2OC)C1
40.8 (≈ 141 µM) | O=S(=O)(NCCN1CCCC1)c1ccc(Cl)cc1
> 40.7 | CC12COC3(C(=O)Nc4ccccc4)CC1CCC32C (stereo not given)
40.5 (≈ 120 µM) | O=C(CNC(=O)c1ccco1)OCc1ccc(Br)cc1
> 51.1 | CCCN1CCN(C(=O)c2ccc3nc(CC)c(CC)nc3c2)CC1

solubility kinetic [µg/mL] | Structure (SMILES)
4.8 (≈ 18.6 µM) | Clc1cccc(CN2CCCCCC2)c1Cl
5.2 (≈ 16 µM) | CCOc1ccccc1CN1C(=O)C2(OCCO2)c2ccccc21
43.6 (≈ 143 µM) | Cc1occc1C(=O)N1CCN(c2ccc(Cl)cc2)CC1
> 57.3 | CCCN(CC(=O)Nc1ccc(Cl)cc1Cl)C(=O)c1ccc(=O)[nH]c1
> 41.2 | O=S(=O)(Nc1ccc(Cl)cn1)c1cccs1
> 39 | O=C(Cn1ccc([N+](=O)[O-])n1)NCc1ccccc1
< 0.3 | Cc1cc(Nc2ccc(Br)cc2)nc(-c2ccccc2O)n1
31.1 (≈ 99.9 µM) | O=C(COc1ccc(-n2ccnc2)cc1)Nc1cccc(F)c1
> 43.9 | CCOC(=O)c1nn(-c2ccc(Cl)cc2)c(C)cc1=O
> 35.7 | C#CCn1c(-c2cccs2)nc2ccccc21
2 (≈ 5.81 µM) | Cc1ccc(NC(=O)c2ccc3c(c2)CCN3S(C)(=O)=O)cc1C
36.9 (≈ 135 µM) | Cc1ccccc1CC(=O)Nc1cc(C(C)(C)C)on1
17.4 (≈ 51.4 µM) | CC(C)(C)N1C(=O)c2ccc(C(=O)Nc3ccc(O)cc3)cc2C1=O
> 52.1 | Cc1ccc(-n2nc3c(c2NC(=O)C(C)(C)C)CS(=O)(=O)C3)cc1
0.2 (≈ 0.641 µM) | Cc1cc(Nc2ccc(Cl)cc2)nc(-c2ccccc2O)n1
> 50.6 | CN(CC1COc2ccccc2O1)C(=O)CSc1nncs1 (stereo not given)
46.9 (≈ 149 µM) | O=C(NCCCn1ccnc1)c1ccc(Br)s1
> 43.7 | COC(=O)C(c1ccccc1)C1(O)CC(C)N(C)CC1C (stereo not given)
0.9 (≈ 2.93 µM) | CC(=O)Oc1ccc2nc(/C=C/c3ccccc3)oc(=O)c2c1
47.7 (≈ 144 µM) | CCNC(=S)NC1CC2CCCC(C1)N2Cc1ccc(C)cc1 (stereo not given)
> 42.4 | O=C(O)CCN1CCc2ccccc2C1c1ccncc1 (stereo not given)
8 (≈ 29.9 µM) | O=[N+]([O-])c1ccc2c(c1)ncn2CCc1ccccc1
39.6 (≈ 118 µM) | COc1ccc(C(=O)NCc2cc(C)nc3ccccc23)cc1OC
> 52.3 | COc1ccc(/C=C/C(=O)O)cc1S(=O)(=O)NCc1cccnc1

solubility kinetic [µg/mL] | Structure (SMILES)
> 47.8 | CC(=O)Nc1ccc(NC(=O)C(C)OC(=O)C2CCCC2)cc1 (stereo not given)
23.7 (≈ 64.3 µM) | N#Cc1ccc(C(=O)Nc2cccc(S(=O)(=O)NC3=NCCC3)c2)cc1
> 50.2 | COc1ccc(N2CC(C(=O)NC3CCSC3=O)CC2=O)cc1 (stereo not given)
37.6 (≈ 134 µM) | CCOC(=O)C1CCN(C(=O)CCC2CCCC2)CC1
11.5 (≈ 41.6 µM) | COc1cccc(C2Nc3cccc4cccc(c34)N2)c1
> 41.9 | O=C(N/N=C/c1c[nH]c2ccccc12)c1ccccc1O
43.7 (≈ 146 µM) | O=C(O)CC(c1ccccc1F)N1Cc2ccccc2C1=O (stereo not given)
1.9 (≈ 6.55 µM) | N#Cc1ccccc1NC(=O)c1cc(=O)c2ccccc2o1
> 55.3 | CC(C)C(C)(C#N)NC(=O)CN1C(=O)NC2(CCCc3ccccc32)C1=O (stereo not given)
> 43.7 | O=c1[nH]c(/C=C\c2ccc(O)c(O)c2)nc(O)c1[N+](=O)[O-]
> 44.3 | Cc1nc(SCC(=O)N2CCCCCC2)[nH]c(=O)c1C
> 42.5 | C=CCC(=O)NC(C)c1cnn(-c2ccccc2C)c1C (stereo not given)
2.4 (≈ 6.64 µM) | CCc1ccc(NC(=S)N(Cc2ccccc2)Cc2ccccn2)cc1
< 0.2 | CCN(CC)c1cc(C)c2cc(NC(=O)c3cccs3)ccc2n1
> 47.3 | Cc1cc2c(c(=O)o1)C(c1ccc([N+](=O)[O-])o1)C(C#N)=C(N)O2 (stereo not given)
11.5 (≈ 34 µM) | O=C(NC(Cc1ccccc1)C(=O)NC1CC1)OCc1ccccc1 (stereo not given)
34.8 (≈ 145 µM) | O=C1NC(c2ccccc2O)Nc2ccccc21 (stereo not given)
> 60.2 | Cc1ccccc1CN(c1ccc(C(=O)N2CCN(C)CC2)cc1)S(C)(=O)=O
5.9 (≈ 14.8 µM) | CC(Sc1ccc(S(=O)(=O)N2CCOCC2)cn1)c1ccccc1Cl (stereo not given)
> 45 | O=C(O)c1cccc(Nc2ccc([N+](=O)[O-])c3nonc23)c1
0.9 (≈ 2.65 µM) | O=C1/C(=C/c2ccccc2)SC(=S)N1C1CCS(=O)(=O)C1 (stereo not given)
> 41.9 | CSCCC(=O)Nc1nc(-c2ccccn2)cs1

Structure (SMILES) | solubility kinetic [µg/mL]
O=c1c2ccccc2nc(Cc2ccccc2)n1-c1ccccc1 | 39.5 (≈ 126 µM)
c1ccc(P(c2ccccn2)c2ccccn2)cc1 | > 39.6
